According to patent US9051345B2, “Metalloinsertor complexes targeted to DNA mismatches” (CALIFORNIA INSTITUTE OF TECHNOLOGY, priority 2011, dated 2015):

Columns and labels:
[1] = system: HCT116N cells; assay: MTT cytotoxicity assay; type: cell-based, human; conditions: 72 hours
Experimental: (§1) Cytotoxicity assays were performed as described in Mosmann, 1983, J. Immunol. Methods, 65, 55-63, the entire contents of which is incorporated herein by reference. HCT116N and HCT116O cells were plated in 96-well plates at 50,000 cells/well and incubated with rhodium for the durations specified. After incubation with the indicated rhodium complexes, cells were labeled with MTT for 4 hours at 37° C. under 5% CO2 and humidified atmosphere. The resulting formazan crystals were dissolved with solubilizing reagent purchased from Roche according to the manufacturer's instructions. The dissolved formazan was quantified as the absorbance at 570 nm minus the background absorbance at 690 nm. Percent viability was determined as the ratio of the amount of formazan in the treated cells to that of the untreated cells.
(§2) In order to elucidate the mechanism of action for the cytotoxicity caused by a metalloinsertor complex of Formula I, the MTT cytotoxicity assay was repeated in the absence and presence of the pan-caspase inhibitor Z-VAD-FMK. This inhibitor works by irreversibly binding to the active site of caspases which participate in the apoptotic pathway. Z-VAD-FMK was added to a final concentration of 20 μM. The HCT116N and HCT116O cell lines were treated with 0-30 μM of the [Rh(HDPA)2chrysi]^3+ complex for 24-72 hours. In addition, each treatment was also combined with the inhibitor at a final concentration of 20 μM.
In order to determine the mechanism of action for cytotoxicity caused by a metalloinsertor complex of Formula I, the MTT cytotoxicity assay was repeated in conjunction with a panel of poly-ADP ribose polymerase (PARP) inhibitors: DPQ, 3-AB, 4-AN, and ABT-888, as described in Costantino et al., 2001, J. Med. Chem., 44, 3786-3794; Purnell et al., 1980, Biochem. J. 185, 775-777; Banasik et al., 1992, J. Biol. Chem. 267, 1569-1575; and Donawho et al., 2007, Clin. Cancer Res., 13, 2728-2737, the entire contents of all of which are incorporated herein by reference. […]

[2] = system: HCT116O cells; assay: MTT cytotoxicity assay; type: cell-based, human
Experimental: as §1
as §2, with “Z-VAD-FMK was added to a final concentration of 20 μM.” left out, “In addition, each treatment was also combined with the inhibitor at a final concentration of 20 μM.” left out
In order to determine the mechanism of action for cytotoxicity caused by a metalloinsertor complex of Formula I, the MTT cytotoxicity assay was repeated in conjunction with a panel of poly-ADP ribose polymerase (PARP) inhibitors: DPQ, 3-AB, 4-AN, and ABT-888, as described in Costantino et al., 2001, J. Med. Chem., 44, 3786-3794; Purnell et al., 1980, Biochem. J. 185, 775-777; Banasik et al., 1992, J. Biol. Chem. 267, 1569-1575; and Donawho et al., 2007, Clin. Cancer Res., 13, 2728-2737, the entire contents of all of which are incorporated herein by reference. The HCT116N and HCT116O cell lines were treated with 0 or 20 μM of the [Rh(HDPA)2chrysi]^3+ complex for 72 hours, with or without one of the four inhibitors. The inhibitor 3,4-Dihydro-5[4-(1-piperindinyl)butoxy]-1(2H)-isoquinoline (DPQ) was added to a final concentration of 0, 25, or 50 μM; the inhibitor 3-aminobenzamide (3-AB) was added to a final concentration of 0, 2, or 3 mM; the inhibitor 4-amino-1,8-napthalimide (4-AN) was added to a final concentration of 0, 10, or 20 μM; and the inhibitor 2-((R)-2-Methylpyrrolidin-2-yl)-1H-benzimidazole-4-carboxamide (ABT-888) was added to a final concentration of 0, 5, or 10 μM. […] For example, in the case of the compound DPQ, this difference was 43±2.7% without inhibitor and 0.6±3.0% with inhibitor.

Substance: [Rh(HDPA)2chrysi]^3+
- number of viable HCT116N cells, % of untreated controls ([1]; 20 μM): 80±5.2%
- cell viability HCT116N with caspase inhibitor ([1]; 30 μM metal complex, with Z-VAD-FMK at 20 M (so in the source)): 52±9.8%
- cell viability HCT116N ([1]; 30 μM metal complex, without inhibitor): 63±5.7%
- caspase dependence of the selective cell death ([2]; MTT with or without Z-VAD-FMK): caspase-independent
- number of viable HCT116O cells, % of untreated controls ([2]; MTT, 20 μM, 72 hours): 37±4.4%
- difference between percentage of viable HCT116N cells and percentage of viable HCT116O cells, with DPQ ([2]; MTT, 20 μM, 72 hours, with PARP inhibitor DPQ): 0.6±3.0%
- difference between percentage of viable HCT116N cells and percentage of viable HCT116O cells ([2]; MTT, 20 μM, 72 hours, without inhibitor): 43±2.7%
- cell viability HCT116O with caspase inhibitor ([2]; MTT, 30 μM metal complex, 72 hours, with Z-VAD-FMK at 20 M (so in the source)): 9.8±7.8%
- cell viability HCT116O ([2]; MTT, 30 μM metal complex, 72 hours, without inhibitor): 9.7±4.4%
- toxicity in MMR-deficient HCT116O versus HCT116N cells at 48 hours ([2]; MTT, 48 hours): enhance toxicity in the MMR-deficient HCT116O cells
- cell viability HCT116O without inhibitor (40 μM caspase inhibitor experiment) ([2]; MTT, rhodium alone, control arm of the 40 μM Z-VAD-FMK experiment): 16±10%
- cell viability HCT116O with caspase inhibitor 40 μM ([2]; MTT, rhodium plus Z-VAD-FMK 40 μM): 28±3.7%
